Measured values taken from the METLIN SMRT retention time set (Domingo-Almenara et al. 2019).

assay: gradient 5% acetonitrile 3 min, to 50% in 2 min, to 85% in 15 min, held 3 min, 100 µL/min; settings: column: Zorbax Extend-C18 2.1 x 50 mm; eluents: water / acetonitrile, 0.1% formic acid
Procedure, shortened: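 Over 3 months, pure standards in mixtures of ~100 molecules were run by HPLC coupled to a quadrupole time-of-flight mass spectrometer in positive and negative ionization mode. The column was a Zorbax Extend-C18 (2.1 × 50 mm, 1.8 μm) at 100 μL/min, eluted with water and acetonitrile each holding 0.1% formic acid, with 40 μL dead and 900 μL dwell volumes. Retention time was determined from adduct peaks chosen by software and checked manually.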

Going from Cc1cc(N2CCN(C)CC2)nc2ccc(NC(=O)CCC(=O)NCCC(C)C)cc12 to CC(C)n1c(N2CCCN(C(=O)COc3ccccc3)CC2)cc(=O)n(C(C)C)c1=O, the RP-LC retention time rises from 556 s to 843 s.

Going from CCOc1cccc(-c2noc(Cn3c(=O)n(-c4cccc(C)c4)c(=O)c4sccc43)n2)c1 to CCc1ccc(-c2ccc(=O)n(CCc3nc(-c4cccc(C)c4)no3)n2)cc1, the RP-LC retention time rises from 1060 s to 1180 s.

Going from CCn1cc(C(=O)NCCC2=CCCCC2)c2nn(-c3ccccc3)c(=O)c-2c1 to COCCn1cc(C(=O)Nc2ccccc2F)c2nn(-c3ccccc3)c(=O)c-2c1, the RP-LC retention time falls from 1020 s to 880 s.

Compared with O=S(=O)(c1ccc(F)c(F)c1)N1CCCC(Cn2c(C3CC3)nc3cccnc32)C1 (stereo not given), Cc1ccnc(N2CCCC(C(=O)NCC3CCN(Cc4cccc(Cl)c4)CC3)C2)n1 (stereo not given) is lower in RP-LC retention time: 782 s for the first, 604 s for the second.

Compared with Cc1c(C(=O)N2CCCCC2)c(S(=O)(=O)N2CCN(c3ccccn3)CC2)c(C)n1C, O=C(c1cn(-c2cc(N3CCCCC3)ncn2)cn1)N1CCN(c2ccccn2)CC1 is higher in RP-LC retention time: 629 s for the first, 636 s for the second.

First: Cc1oc(C2CCN(S(=O)(=O)c3ccc(C(C)C)cc3)CC2)nc1C(=O)N(C)C
Second: Cc1ccc(NS(=O)(=O)c2cc(-c3[nH]ncc3C(=O)N(C)C)oc2C)c(Cl)c1
The RP-LC retention time of the first is higher: 966 s for the first, 707 s for the second.

Going from CCN1CCN(C(=O)c2ccc(-c3ccc4c(c3)CCN4C(C)=O)cc2)CC1 to Cc1nc(-c2ccc3c(c2)CCN3C(=O)c2ccc3c(c2)OCO3)cs1, the RP-LC retention time rises from 607 s to 951 s.

First: O=C(Cc1c[nH]c2ccccc12)N1CCCN(c2cc(-c3ccc(Br)cc3)[nH]n2)CC1
Second: Cc1ccc(-c2csc(-c3cccn3CC(=O)N3CCCC3)n2)cc1
The RP-LC retention time of the first is lower: 722 s for the first, 1070 s for the second.

Going from COc1ccc(NC(=O)c2sc(-c3cn(C(C)C)c4ncccc34)nc2C)cc1OC to COc1ccc(NC(=O)NC2CCN(c3ccccc3)C2=O)cc1OC (stereo not given), the RP-LC retention time falls from 944 s to 683 s.

First: CCC(C)NC(=O)Cn1nc(-c2ccccc2)c2cc(Cl)ccc21 (stereo not given)
Second: CC(C)c1cc(C(=O)Nc2ccccc2)no1
The RP-LC retention time of the first is higher: 1060 s for the first, 969 s for the second.

Going from Cn1nc(C(=O)N2CCCC2)c2c1CCN(C(=O)Nc1ccc(F)cc1F)C2 to O=C(NCCN1CCOCC1)C1CCc2sc(C(=O)N3CCCCC3)cc2C1 (stereo not given), the RP-LC retention time falls from 718 s to 563 s.

First: COc1ccc(Cl)cc1NC(=O)c1cc(C)n2nccc2n1
Second: Cc1ccc(-c2nc3cnccn3c2Nc2ccc(C)c(Cl)c2)cc1
The RP-LC retention time of the first is lower: 942 s for the first, 1080 s for the second.

Compared with CC1=C(C(=O)OCCC#N)C(c2ccccc2F)NC(=O)N1 (stereo not given), COc1ccc(CN2C=C(C(=O)OCc3ccccc3OC)C(C)=NS2(=O)=O)cc1 is higher in RP-LC retention time: 645 s for the first, 1120 s for the second.

First: O=C(NC1CCc2nn(CC3CC3)c(=O)n2CC1)c1cc(C2CC2)[nH]n1 (stereo not given)
Second: CS(=O)(=O)N1CCC(C(=O)NCC2CCN(C(=O)Oc3ccccc3)CC2)CC1
The RP-LC retention time of the first is lower: 627 s for the first, 663 s for the second.

Going from Cn1ncc2c(Sc3ccc(Cl)cc3)ncnc21 to O=C(c1cccc(Br)c1)N1CCc2nc(-c3ccc(Cl)cc3)ncc2C1, the RP-LC retention time rises from 1000 s to 1160 s.

Going from CCc1noc(-c2ccc(-n3ncc(C(=O)N4CCCCCC4)c3C)nc2)n1 to CCc1ccc(C2=C(C)C(N3CCCN(C(=O)C4CCC4)CC3)=NS2(=O)=O)cc1, the RP-LC retention time falls from 1010 s to 875 s.

Going from Cc1noc(CN2CCN(C3CCN(Cc4cc(Cl)ccc4F)C3)C2=O)n1 (stereo not given) to CN1C(=O)[C@H]2CN(Cc3cccc(Cl)c3F)C[C@H]2C1=O, the RP-LC retention time falls from 713 s to 649 s.

Going from COc1ccc(CNC(=O)c2[nH]c3cc(C)sc3c2CN(C)C)c(OC)c1 to O=C(Nc1cc(-c2cccs2)no1)c1ccc(F)cc1, the RP-LC retention time rises from 691 s to 948 s.

Going from NC(=O)C1CCN(C(=O)Cc2csc(NC(=O)c3ccco3)n2)CC1 to Cc1ccc(Cn2nc3c(S(=O)(=O)N4CCCC4)cccn3c2=O)cc1, the RP-LC retention time rises from 572 s to 880 s.

Going from O=S(=O)(Cc1ccccc1)N1CCC2(CC1)CC(OCc1ccccc1)CCO2 (stereo not given) to O=C(CSc1nnc2c3cc(-c4ccccc4)nn3ccn12)NCc1ccccc1, the RP-LC retention time falls from 1080 s to 781 s.

Compared with Cc1ccc(Sc2nccnc2N2CCC(C(=O)N3CCN(c4ccccn4)CC3)CC2)cc1, CCOc1ccc2nc(N3CCCC(C(=O)NCCCN4CCOCC4)C3)sc2c1 (stereo not given) is lower in RP-LC retention time: 706 s for the first, 632 s for the second.

First: CCCNC(=O)N1CCC2(CCCCO2)CC1
Second: COCCC1(N(C)C)CCN(C(=O)CC2CCCCC2)CC1
The RP-LC retention time of the first is lower: 602 s for the first, 621 s for the second.

CC(C)(C)c1csc(-c2csc(S(=O)(=O)Nc3ccccc3)c2)n1 showed an RP-LC retention time of 1180 s.
